Measurements reported in patent US4156731A, “Heterocyclic oxime compounds and carbamoyloxime derivatives” (priority 1976, dated 1979).

Key:
[1] = system: bean aphid (Aphis fabae Scop.); assay: Bean Aphid Foliage Spray Test; assay type: in vivo; design: key: A: Excellent control; B: Partial control; C: No control; conditions: 500 ppm foliage spray, 24 hour holding period
Experimental: (§1) Selected species of the new compounds were evaluated to determine their pesticidal activity against mites and certain insects, including anaphid, a caterpillar, a beetle and a fly.
(§2) Suspensions of the test compounds were prepared by dissolving one gram of compound in 50 milliliters of acetone in which had been dissolved 0.1 gram (10 percent of the weight of compound) of an alkylphenoxy polyethoxyethanol surfactant, as an emulsifying or dispersing agent. The resulting solution was mixed into 150 milliliters of water to give roughly 200 milliliters of a suspension containing the compound in finely divided form. The thus-prepared stock suspension contained 0.5 percent by weight of test compound. The test concentrations in parts per million by weight employed in the tests described hereinbelow were obtained by appropriate dilutions of the stock suspension with water. The test procedures were as follows:
Bean Aphid Foliage Spray Test
Adults and nymphal stages of the bean aphid (Aphis fabae Scop.) reared on potted dwarf nasturtium plants at 65°-70° F. and 50-70 per cent relative humidity, constituted the test insects. For testing purposes, the number of aphids per pot was standardized to 100-150 by trimming plants containing excess aphids.
The test compounds were formulated by diluting the stock suspension with water to give a suspension containing 500 parts of test compound per million parts of final formulation.
The potted plants (one pot per compound tested) infested with 100-150 aphids, were placed on a revolving turntable and sprayed with 100-110 milliliters of test compound formulation by use of a DeVilbiss spray gun set at 40 psig. air pressure. This application, which lasted 25 seconds, was sufficient to wet the plants to run-off. As a control, 100-110 milliliters of a water-acetone-emulsifier solution containing no test compound were also sprayed on infested plants. After spraying, the pots were placed on their sides on a sheet of white standard mimeograph paper which had been previously ruled to facilitate counting. Temperature and humidity in the test room during the 24 hour holding period were 65°-70° F. and 50-70 per cent, respectively. Aphids which fell into the paper and were unable to remain standing after being uprighted were considered dead. Aphids remaining on the plants wre observed closely for movement and those which were unable to move the length of the body upon stimulator by prodding were considered dead. Per cent mortality was recorded for various concentration levels.
(§3) In these tests the pesticidal activity of the compounds against aphid, mite, Southern Armyworm, Mexican Bean Beetle, and house fly was rated as follows: […]

[2] = system: two spotted mite (Tetranychus urticae Koch); assay: Mite Foliage Spray Test; assay type: in vivo; design: key: A: Excellent control; B: Partial control; C: No control; conditions: 500 ppm foliage spray, six days
Experimental: as §1, §2
Adults and nymphal stages of the two spotted mite (Tetranychus urticae Koch), reared on Tendergreen bean plants at 80±5 per cent relative humidity, were the test organisms. Infested leaves from a stock culture were placed on the primary leaves of two bean plants six to eight inches in height, growing in a two-and-a-half inch clay pot. 150-200 mites, a sufficient number for testing, transferred from the excised leaves to the fresh plants in a period of twenty four hours. Following the twenty four hour transfer period, the excised leaves were removed from the infested plants. The test compounds were formulated by diluting the stock suspension with water to give a suspension with water to give a suspension containing 500 parts of test compound per million parts of final formulation. The potted plants (one pot per compound) were placed on a revolving turntable and sprayed with 100-110 milliliters of test compound formulation by use of a DeVilbiss spray gun set at 40 psig. air pressure. This application, which lasted for 25 seconds, was sufficient to wet the plants to run-off. As a control, 100-110 milliliters of a water solution containing acetone and emulsifier in the same concentrations as the test compound formulation, but containing no test compound, were also sprayed on infested plants. The sprayed plants were held at 80±5 per cent relative humidity for six days, after which a mortality count of motile forms were made. Microscopic examination for motile forms was made on the leaves of the test plants. Any individual which was capable of locomotion upon prodding, was considered living.
as §3

[3] = system: southern armyworm (Prodenia Eridania, (Cram.)); assay: Southern Armyworm Leaf Spray Test; assay type: in vivo; design: key: A: Excellent control; B: Partial control; C: No control; conditions: larvae, 500 ppm leaf spray, three days
Experimental: as §1, §2
Southern Armyworm Leaf Spray Test
Larvae of the southern armyworm (Prodenia Eridania, (Cram.), reared on Tendergreen bean plants at a temperature of 80°±5° F. and a relative humidity of 50±5 per cent, constituted the test insects.
The test compounds were formulated by diluting the stock suspension with water to give a suspension containing 500 parts of test compound per million parts of final formulation. Potted Tendergreen bean plants of standard height and age were placed on a revolving turntable and sprayed with […] of test compound formulation by use of a DeVilbiss spray gun set at 10 psig. air pressure.
This application, which lasted 25 seconds, was sufficient to wet plants to run-off. As a control, 100-110 milliliters of a water-acetone-emulsifier solution containing no test compound were also sprayed on infested plants. When dry, the paired leaves were separated and each one was placed in a 9 centimeter Petric dish lined with moistened filter paper. Five randomly selected larvae were introduced into each dish and the dishes were closed. The closed dishes were labeled and held at 80°-85° F. for three days. Although the larvae could easily consume the whole leaf within twenty-four hours, no more food was added. Larvae which were unable to move the length of the body, even upon stimulation by prodding, were considered dead. Per cent mortality was recorded for various concentration levels.
as §3

[4] = system: Mexican bean beetle (Epilachna varivestis, Muls.); assay: Mexican Bean Beetle Leaf Spray Test; assay type: in vivo; design: key: A: Excellent control; B: Partial control; C: No control; conditions: fourth instar larvae, 500 ppm leaf spray, three days
Experimental: as §1, §2
Mexican Bean Beetle Leaf Spray Test
Fourth instar larvae of the Mexican bean beetle (Epilachna varivestis, Muls.), reared on Tendergreen bean plants at a temperature of 80°±5° F. and 50±5 per cent relative humidity, were the test insects.
The test compounds were formulated by diluting the stock suspension with water to give a suspension containing 500 parts of test compound per million parts of final formulation. Potted Tendergreen bean plants of standard height and age were placed on a revolving turntable and sprayed with 100-110 milliliters of test compound formulation by use of DeVilbiss spray gun set at 10 psig air pressure. This application, which lasted 25 seconds, was sufficient to wet plants to run-off. As a control, 100-110 milliliters of a water-acetone-emulsifier solution containing no test compound were also sprayed on infested plants. When dry, the paired leaves were separated and each was placed in a 9 centimeter Petri dish lined with moistened filter paper. Five randomly selected larvae were introduced into each dish, and the dishes were closed. The closed dishes were labeled and held at a temperature of […]. for three days. Although the larvae could easily consume the leaf within 24 to 48 hours, no more food was added. Larvae which were unable to move the length of the body, even upon stimulation, were considered dead.
as §3

[5] = system: house flies (Musca domestica, L.); assay: Fly Bait Test; assay type: in vivo; design: key: A: Excellent control; B: Partial control; C: No control; conditions: adults, 500 ppm in sugar bait, twenty four hours
Experimental: as §1, §2
Four to six day old adult house flies (Musca domestica, L.) reared according to the specifications of the Chemical Specialities Manufacturing Association (Blue Book, McNair-Dorland Co., NY., 1954; pages 234-244, 261) under controlled conditions of 80°±5° F. and 50±5 per cent relative humidity, were the test insects. The flies were immobilized by anesthetizing with carbon dioxide and twenty five immobilized individuals, males and females, were transferred to a cage consisting of a standard food stainer about five inches in diameter which was inverted over a wrapping-paper-covered surface. The test compounds were formulated by diluting the stock suspension with a 10 per cent (by weight) sugar solution to give a suspension containing 500 parts of test compound per million parts of final formulation, by weight. Ten milliliters of the test formulation were added to a souffle cup containing a one inch square of an absorbent cotton pad. This bait cup was introduced and centered on the blotting paper under the food strainer prior to admitting the anesthetized flies. The caged flies were allowed to feed on the bait for twenty four hours, at a temperature of 80°±5° F. and the relative humidity of 50±5 per cent.
as §3

[6] = Peroral toxicity to mammals (rat); conditions: in vivo, po, mortality rate of 50 percent, read-out: A. O. Rat LD50
Experimental: Certain of these compositions were also evaluated to determine their peroral toxicity to mammals. The animal selected for this experiment was the rat.

Row | SMILES | Bean Aphid pesticidal activity rating [1] | Mite pesticidal activity rating [2] | Southern Armyworm pesticidal activity rating [3] | Mexican Bean Beetle pesticidal activity rating [4] | House-Fly pesticidal activity rating [5] | LD50 [6] [mg/kg]
1 | CNC(=O)ON=C1SC(=NN(C)C)SC1(C)C [LV] | A | A | A | A | A | 1.8
2 | CN(SC(Cl)(Cl)Cl)C(=O)ON=C1SC(=C(C#N)C#N)SC1(C)C [LXIII] | A | C | C | A | C | 538
3 | CN(SN1CCOCC1)C(=O)ON=C1SC(=C(C#N)C#N)SC1(C)C [LXXIV] | A | C | B | C | C | –
4 | CNC(=O)ON=C1SC(=S)SC1(C)C [LXXI] | A | B | B | A | B | –
5 | CN=C1SC(=NOC(=O)N(C)SN(C)C(=O)ON=C2SC(=NC)SC2(C)C)C(C)(C)S1 [LXXVIII] | A | A | A | A | A | –
6 | CN(SN(C)C(=O)ON=C1SC(=C(C#N)C#N)SC1(C)C)C(=O)ON=C1SC(=C(C#N)C#N)SC1(C)C [LXXVII] | C | C | C | A | C | –
7 | CNC(=O)ON=C1CSC(=CC(C)=O)S1 [LXXVI] | C | C | C | B | A | –
8 | CC(C)C(=O)C(C)(C)SSN(C)C(=O)ON=C1SC(=C(C#N)C#N)SC1(C)C [LXXV] | A | A | B | B | C | –
9 | CN(SC(Cl)(Cl)Cl)C(=O)ON=C1SC(=NC#N)SC1(C)C [LXX] | C | C | C | C | C | –
10 | Cc1ccc(S(=O)(=O)N=C2SC(=NOC(=O)N(C)SC(Cl)(Cl)Cl)C(C)(C)S2)cc1 [LX] | C | C | B | B | B | –
11 | CN=C1SC(=NOC(=O)NC)C(C)(C)S1 [XL, 5,5-Dimethyl-2-methylimino-4-[O-(N-methylcarbamoyl)oximino]-1,3-dithiolane] | A | A | B | A | A | –
12 | CCN=C1SC(=NOC(=O)N(C)SC(Cl)(Cl)Cl)C(C)(C)S1 [XLI, 5,5-Dimethyl-2-ethylimino-4-[[O-[N-methyl-N-(trichloromethanesulfenyl)carbamoyl]oximino]]-1,3-dithiolane] | A | A | B | A | A | –
13 | CN(C)C(=O)ON=C1SC(=C(C#N)C#N)SC1(C)C [XLIII, 5,5-Dimethyl-2-(dicyanomethylidene)-4-[O-(N,N-dimethylcarbamoyl)oximino]-1,3-dithiolane] | B | C | C | B | B | –
14 | CN(C)N=C1SC(=NOC(=O)N(C)SSC(C)(C)C)C(C)(C)S1 [XLII] | A | A | A | A | A | –
15 | CC(C)N=C1SC(=NOC(=O)N(C)SSC(C)(C)C)C(C)(C)S1 [XLIX] | A | A | C | A | A | –
16 | CN=C1SC(=NOC(=O)N(C)SC(Cl)(Cl)Cl)C(C)(C)S1 [XLV] | A | A | A | A | A | –
